The source of these data is patent US20250179027A1, “CYCLOALKYL OR HETEROCYCLYL SUBSTITUTED HETEROARYL COMPOUND, AND COMPOSITION AND USE THEREOF” (Shenzhen TargetRx, Inc., priority 2022, published 2025).

The structures appear in SMILES notation. Some results are limits rather than exact numbers.

One assay has as its target T1, BTK C481S kinase (Homo sapiens, UniProt Q06187, C481S).
T1 construct: purchased Carna 08-547
In words: HTRF kinase activity inhibition assay, BTK C481S. It is filed as biochemical. Conditions: HTRF TK kit. The text has this:
(§1) In this assay, the HTRF TK Kit (Catalog No. 62TKOPEC) provided by Cisbio was used to detect the inhibitory activity of compounds on BTK kinase and BTK C481S kinase and the selectivity of compounds relative to EGFR, ITK and TEC kinases.
(§2) Reagents and consumables: BTK kinase (Invitrogen, Catalog No. PV3587), BTK C481S (Carna, Product No. 08-547), ITK (Carna, Product No. 08-181), EGFR (Carna, Product No. 08-115), TEC (Carna, Product No. 08-182), HTRF-TK kit (Cisbio, Product No. 62TKOPEC), MgCl2 (Sigma, Product No. M1028), MnCl2 (Sigma, Product No. M1787), DTT (Sigma, Product No. D0632), ATP (Sigma, Product No. A7699-1 g), DMSO (Sigma, Product No. D2650), 384-well plate (PE, Product No. 6008280).
(§3) The entire operation steps were carried out on ice, and the total reaction volume was 10 μL. The compound (4 μL), substrate and ATP (4 μL), kinase (2 μL) were added in sequence to a 384-well plate, and shaked for 30 seconds. After an appropriate time at room temperature, the detection reagent was added. After 1 hour at room temperature, the plate was detected with a microplate reader. The specific steps were as follows: • a) 1× kinase buffer solution required for kinase detection was calculated according to the amount of the detection compound, and prepared as needed; • b) compounds with 2.5×working concentration were prepared, the 100 times gradient concentration solution of compounds was diluted by 4 μL to the desired concentration, mixed well, and added to each well at 4 μL per well; • c) 5×working concentration of substrate and ATP were prepared, mixed in a ratio of 1:1 before adding to a 384-well plate, and added to each well at 4 μL per well; • d) 5×working concentration of kinase was prepared, and 2 μL was added to each well; • e) the plate was shaked on a microplate oscillator for 30 seconds, sealed with a sealing membrane, and reacted at room temperature for an appropriate time; • f) 4×working concentrations of streptavidin XL-665 and TK antibody-cryptate compound were prepared, mixed in a ratio of 1:1 before adding to a 384-well plate, and added to each well at 10 μL per well; • g) the plate was read after reacting at room temperature for 1 hour; • h) the wells with only substrate, ATP and 1% DMSO added but no kinase were blank control wells, and the wells with only substrate, ATP, 1% DMSO and kinase were positive control wells.
(§4) Readings: The values of 620 nm (cryptate) and 665 nm (XL665) were read with a BioTek Synerg Neo2 microplate reader, the ratio of 665/620 per well was calculated, and the data were exported. Data analysis: IC50 was calculated using GraphPad Prism 7.0 software. The following nonlinear fitting formula was used to obtain the IC50 (half inhibitory concentration) of compounds:
(§5) [formula] • X: Compound concentration log value • Y: Inhibition rate (% inhibition)
(§6) The kinase inhibition rate (% inhibition rate) was calculated as: […]
(In general: TR-FRET usually uses a lanthanide donor and a delayed reading to cut background.)

The target in the next assay is T2, ITK (Homo sapiens, UniProt Q08881).
T2 construct: purchased Carna 08-181
T2 sequence (Q08881 1-620): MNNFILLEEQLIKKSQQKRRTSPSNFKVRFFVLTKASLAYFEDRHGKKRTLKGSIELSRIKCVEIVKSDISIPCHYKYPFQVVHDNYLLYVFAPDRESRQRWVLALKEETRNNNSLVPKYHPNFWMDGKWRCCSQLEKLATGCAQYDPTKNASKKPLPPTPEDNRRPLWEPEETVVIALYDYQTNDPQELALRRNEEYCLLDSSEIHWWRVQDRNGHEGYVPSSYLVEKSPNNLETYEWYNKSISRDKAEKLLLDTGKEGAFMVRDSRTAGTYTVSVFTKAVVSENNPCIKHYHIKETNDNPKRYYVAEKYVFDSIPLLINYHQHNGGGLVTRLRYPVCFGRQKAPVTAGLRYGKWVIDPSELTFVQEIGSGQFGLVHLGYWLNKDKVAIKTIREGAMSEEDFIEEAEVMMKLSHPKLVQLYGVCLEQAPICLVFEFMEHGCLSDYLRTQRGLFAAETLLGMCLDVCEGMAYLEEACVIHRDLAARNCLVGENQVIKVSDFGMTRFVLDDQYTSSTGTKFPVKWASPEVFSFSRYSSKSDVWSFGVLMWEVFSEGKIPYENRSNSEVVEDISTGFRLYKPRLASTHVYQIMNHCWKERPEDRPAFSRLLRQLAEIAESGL
Briefly: HTRF kinase activity inhibition assay, ITK. It is filed as biochemical. Conditions: HTRF TK kit.
From the text: as §1, §2, §3, §4, §5, §6

Assay [1] concerns the target T3, phosphorylated BTK Y223 in NIH/3T3 BTK WT cells (Homo sapiens, UniProt Q06187).
T3 construct: expressed in transfected cells; host or cells: NIH/3T3 (mouse fibroblasts) engineered to express BTK WT
In words: Phosphor-BTK(Y223) assay, NIH/3T3 BTK WT cells. It counts as cell-based. Conditions: phosphorylated BTK Y223, NIH/3T3 BTK WT cells; read-out: NIH/3T3 BTK-WT pBTK IC50. The method in brief: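 NIH/3T3 cells expressing BTK WT (7.5k/well) or C481S (10k/well) were treated with compound for 0.5 h at 37 °C, then 1 mM Na3VO4 was added for 2 h. Lysates were probed overnight at room temperature with HTRF p-BTK(Y223) cryptate/d2 antibodies (665/620 nm ratio). IC50 came from nonlinear fit of % inhibition against log concentration.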

T3 sequence (Q06187 whole entry): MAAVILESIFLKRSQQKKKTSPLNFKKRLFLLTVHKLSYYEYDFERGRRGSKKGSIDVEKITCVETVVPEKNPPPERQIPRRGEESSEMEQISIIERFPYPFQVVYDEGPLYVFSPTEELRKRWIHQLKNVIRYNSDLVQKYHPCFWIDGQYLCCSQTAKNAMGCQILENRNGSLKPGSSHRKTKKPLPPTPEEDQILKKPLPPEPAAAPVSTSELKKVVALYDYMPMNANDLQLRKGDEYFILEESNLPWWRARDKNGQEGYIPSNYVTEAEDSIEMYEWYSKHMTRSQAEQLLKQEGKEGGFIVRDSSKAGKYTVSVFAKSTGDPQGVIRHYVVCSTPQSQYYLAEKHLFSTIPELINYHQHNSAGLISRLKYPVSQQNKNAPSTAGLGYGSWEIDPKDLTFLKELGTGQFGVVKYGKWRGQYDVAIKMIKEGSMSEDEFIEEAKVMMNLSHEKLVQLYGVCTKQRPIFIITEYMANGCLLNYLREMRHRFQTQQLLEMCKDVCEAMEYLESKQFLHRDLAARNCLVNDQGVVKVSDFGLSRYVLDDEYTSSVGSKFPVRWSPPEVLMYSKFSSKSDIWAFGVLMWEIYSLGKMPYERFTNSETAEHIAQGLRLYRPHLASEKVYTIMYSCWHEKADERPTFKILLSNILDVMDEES
T1 sequence (Q06187 whole entry C481S): as the sequence (Q06187 whole entry) above, with C481S counted along it

As to `COc1ccc(F)cc1C(=O)NCc1ccc(-c2nn(C3CCCC(O)C3)c3ncnc(N)c23)cc1` (single isomer, unassigned) [Example 7], the IC50 at BTK C481S kinase was ≤ 10 nM; on ITK, > 10000 nM; in assay [1] it was ≤ 25 nM.

Regarding `COc1ccc(F)cc1C(=O)NCc1ccc(-c2nn(C3CCCC(O)C3)c3ncnc(N)c23)cc1` (single isomer, unassigned) [Example 5], the IC50 on BTK C481S kinase is ≤ 10 nM; at ITK, > 10000 nM; in assay [1], ≤ 25 nM.

For the compound `COc1ccc(F)cc1C(=O)NCc1ccc(-c2nn([C@H]3CC[C@H](CO)CC3)c3ncnc(N)c23)cc1` [Example 56, trans-N-(4-(4-amino-1-((1R,4R)-4-(hydroxymethyl)cyclohexyl)-1H-pyrazolo[3,4-d]pyrimidin-3-yl)benzyl)-5-fluoro-2-methoxybenzamide], the IC50 on BTK C481S kinase was ≤ 10 nM; on ITK, > 10000 nM; in assay [1], ≤ 25 nM.

`COc1ccc(F)cc1C(=O)NCc1ccc(-c2nn(C3CCC(CO)OC3)c3ncnc(N)c23)cc1` (single isomer, unassigned) [Example 18, N-(4-(4-amino-1-(6-(hydroxymethyl)tetrahydro-2H-pyran-3-yl)-1H-pyrazolo[3,4-d]pyrimidin-3-yl)benzyl)-5-fluoro-2-methoxybenzamide]: the IC50 on BTK C481S kinase was ≤ 10 nM; on ITK, > 10000 nM; in assay [1], ≤ 25 nM.

`COc1ccc(F)cc1C(=O)NCc1ccc(-c2nn(C3CCC(O)CC3)c3ncnc(N)c23)cc1` [Example 29, N-(4-(4-amino-1-((1R,4R)-4-hydroxycyclohexyl)-1H-pyrazolo[3,4-d]pyrimidin-3-yl)benzyl)-5-fluoro-2-methoxybenzamide]: the IC50 is ≤ 10 nM at BTK C481S kinase, > 10000 nM on ITK and ≤ 25 nM in assay [1].

`COc1ccc(F)cc1C(=O)NCc1ccc(-c2nn(C3CCC(O)C3)c3ncnc(N)c23)cc1` (single isomer, unassigned) [Example 31, N-(4-(4-amino-1-(3-hydroxycyclopentanyl)-1H-pyrazolo[3,4-d]pyrimidin-3-yl)benzyl)-5-fluoro-2-methoxybenzamide]: the results for the IC50 (on BTK C481S kinase; at ITK; in assay [1]) were ≤ 10 nM, > 10000 nM and ≤ 25 nM, respectively.

Turning to `COc1ccc(F)cc1C(=O)NCc1ccc(-c2nn(C3CCCC(O)C3)c3ncnc(N)c23)cc1` (single isomer, unassigned) [Example 8], the IC50 on BTK C481S kinase was 10 to 50 nM; on ITK, > 10000 nM; in assay [1] it was ≤ 25 nM.

On to `COc1ccc(F)cc1C(=O)NCc1ccc(-c2nn([C@H]3CC[C@@H](O)CC3)c3ncnc(N)c23)cc1` [Example 30, N-(4-(4-amino-1-((1S,4S)-4-hydroxycyclohexyl)-1H-pyrazolo[3,4-d]pyrimidin-3-yl)benzyl)-5-fluoro-2-methoxybenzamide], for which the IC50 at BTK C481S kinase was ≤ 10 nM; at ITK, > 10000 nM; in assay [1], ≤ 25 nM.

`COc1ccc(F)cc1C(=O)NCc1ccc(-c2nc(C3CCCC(O)C3)n3ccnc(N)c23)cc1` (stereo not drawn) [Example 20, N-(4-(8-amino-3-(3-hydroxycyclohexanyl)imidazo[1,5-a]pyrazin-1-yl)benzyl)-5-fluoro-2-methoxybenzamide]: the values for the IC50 (at BTK C481S kinase; on ITK; in assay [1]) were 10 to 50 nM, > 10000 nM and ≤ 25 nM, respectively.

Take `COc1ccc(F)cc1C(=O)NCc1ccc(-c2nn([C@H]3CC[C@@H](CO)CC3)c3ncnc(N)c23)cc1` [Example 55, cis-N-(4-(4-amino-1-((1S,4S)-4-(hydroxymethyl)cyclohexyl)-1H-pyrazolo[3,4-d]pyrimidin-3-yl)benzyl)-5-fluoro-2-methoxybenzamide]: the IC50 at BTK C481S kinase was ≤ 10 nM; at ITK it was > 10000 nM; in assay [1] it was ≤ 25 nM.

Regarding `COc1ccc(F)cc1C(=O)NCc1ccc(-c2cc(C3CCC(CO)OC3)n3ncnc(N)c23)cc1` (single isomer, unassigned) [Example 59, N-(4-(4-amino-7-(6-(hydroxymethyl)tetrahydro-2H-pyran-3-yl)pyrrolo[2,1-f][1,2,4]triazin-5-yl)benzyl)-5-fluoro-2-methoxybenzamide], the IC50 at BTK C481S kinase is 10 to 50 nM; on ITK, > 10000 nM; in assay [1], 25 to 50 nM.

Take `COc1ccc(F)cc1C(=O)NCc1ccc(-c2nc(C3CCCC(O)C3)n3ccnc(N)c23)cc1` (single isomer, unassigned) [Example 22, N-(4-(8-amino-3-(3-hydroxycyclohexanyl)imidazo[1,5-a]pyrazin-1-yl)benzyl)-5-fluoro-2-methoxybenzamide]: the IC50 at BTK C481S kinase was ≤ 10 nM; on ITK, > 10000 nM; in assay [1], ≤ 25 nM.

Regarding `COc1ccc(F)cc1C(=O)NCc1ccc(-c2cc(C3CCC(CO)OC3)n3ncnc(N)c23)cc1` (single isomer, unassigned) [Example 60, N-(4-(4-amino-7-(6-(hydroxymethyl)tetrahydro-2H-pyran-3-yl)pyrrolo[2,1-f][1,2,4]triazin-5-yl)benzyl)-5-fluoro-2-methoxybenzamide], the results for the IC50 (on BTK C481S kinase; at ITK; in assay [1]) were ≤ 10 nM, > 10000 nM and ≤ 25 nM, respectively.

With `COc1ccc(F)cc1C(=O)NCc1ccc(-c2nn(C3CCCC(O)C3)c3ncnc(N)c23)cc1` (single isomer, unassigned) [Example 6], the IC50 at BTK C481S kinase is ≤ 10 nM; at ITK, > 10000 nM; in assay [1] it was ≤ 25 nM.

As to `COc1ccc(F)cc1C(=O)NCc1ccc(-c2nn(C3CCCC(O)C3)c3ncnc(N)c23)cc1` (stereo not drawn) [Example 4], the values for the IC50 (at BTK C481S kinase; on ITK; in assay [1]) were ≤ 10 nM, > 10000 nM and ≤ 25 nM, respectively.
